In ChEMBL document CHEMBL1201862, “PubChem BioAssay data set” (2004):
Active and inactive are the calls of the source.

Assays:
[1] = target: T1, Mannose-6-phosphate isomerase (Homo sapiens, UniProt P34949); test: MPI inhibition at elevated mannose 6-phosphate – biochemical, fluorescence intensity, high mannose 6-phosphate, primary screen (AID 1220)
T1 sequence (P34949 whole entry): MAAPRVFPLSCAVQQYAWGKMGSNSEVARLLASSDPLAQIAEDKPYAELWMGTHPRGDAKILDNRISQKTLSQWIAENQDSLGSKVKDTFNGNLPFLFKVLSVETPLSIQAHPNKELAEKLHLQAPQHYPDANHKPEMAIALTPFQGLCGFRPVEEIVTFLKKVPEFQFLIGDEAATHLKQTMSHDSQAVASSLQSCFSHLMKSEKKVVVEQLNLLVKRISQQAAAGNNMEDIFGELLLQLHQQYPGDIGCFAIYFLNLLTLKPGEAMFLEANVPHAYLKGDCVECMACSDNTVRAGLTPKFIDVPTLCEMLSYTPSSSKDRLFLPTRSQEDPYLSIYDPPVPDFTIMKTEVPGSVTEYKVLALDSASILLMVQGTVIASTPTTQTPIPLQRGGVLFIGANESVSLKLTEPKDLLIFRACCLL

[2] = target: T2, Short transient receptor potential channel 4 (Mus musculus, UniProt Q9QUQ5); test: calcium entry via TRPC4 opening agents – cell-based, HEK293 TRPC4/mu-opioid, Fluo-4 calcium, dose response (AID 434937); format: functional
T2 sequence (Q9QUQ5 whole entry): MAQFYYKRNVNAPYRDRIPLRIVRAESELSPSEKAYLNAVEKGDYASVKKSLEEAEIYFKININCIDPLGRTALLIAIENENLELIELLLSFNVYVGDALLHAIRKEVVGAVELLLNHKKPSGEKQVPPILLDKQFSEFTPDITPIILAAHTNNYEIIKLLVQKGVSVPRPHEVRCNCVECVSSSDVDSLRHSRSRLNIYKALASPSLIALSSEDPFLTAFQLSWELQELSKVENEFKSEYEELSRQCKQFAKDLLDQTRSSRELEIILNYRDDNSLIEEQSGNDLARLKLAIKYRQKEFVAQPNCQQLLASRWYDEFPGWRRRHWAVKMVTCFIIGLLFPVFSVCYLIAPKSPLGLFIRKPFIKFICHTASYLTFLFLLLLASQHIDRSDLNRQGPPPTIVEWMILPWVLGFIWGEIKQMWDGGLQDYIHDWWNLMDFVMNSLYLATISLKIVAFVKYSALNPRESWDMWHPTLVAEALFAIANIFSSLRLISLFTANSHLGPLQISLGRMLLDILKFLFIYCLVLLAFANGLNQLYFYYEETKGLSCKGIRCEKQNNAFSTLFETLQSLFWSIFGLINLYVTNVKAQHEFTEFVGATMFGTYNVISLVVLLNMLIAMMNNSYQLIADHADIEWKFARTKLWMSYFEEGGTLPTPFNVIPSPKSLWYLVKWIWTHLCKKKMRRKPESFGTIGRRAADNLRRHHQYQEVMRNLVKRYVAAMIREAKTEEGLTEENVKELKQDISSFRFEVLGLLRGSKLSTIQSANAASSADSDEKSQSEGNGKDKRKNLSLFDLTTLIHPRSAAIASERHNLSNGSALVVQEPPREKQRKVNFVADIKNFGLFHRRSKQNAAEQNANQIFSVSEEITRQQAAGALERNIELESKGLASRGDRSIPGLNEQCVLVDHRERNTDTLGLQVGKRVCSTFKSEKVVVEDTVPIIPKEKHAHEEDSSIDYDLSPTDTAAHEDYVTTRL

[3] = target: Glyceraldehyde-3-phosphate dehydrogenase (Homo sapiens, UniProt P04406)
Glyceraldehyde-3-phosphate dehydrogenase, sequence (P04406 whole entry): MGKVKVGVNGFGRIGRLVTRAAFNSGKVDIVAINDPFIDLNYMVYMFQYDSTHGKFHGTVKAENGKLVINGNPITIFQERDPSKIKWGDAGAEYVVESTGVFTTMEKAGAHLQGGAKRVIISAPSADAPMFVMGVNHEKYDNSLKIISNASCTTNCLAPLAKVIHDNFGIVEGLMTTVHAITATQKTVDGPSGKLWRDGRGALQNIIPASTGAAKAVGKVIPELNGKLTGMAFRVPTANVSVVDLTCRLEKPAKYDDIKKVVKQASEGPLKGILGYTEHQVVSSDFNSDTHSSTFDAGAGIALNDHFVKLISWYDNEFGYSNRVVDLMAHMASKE

[4] = fluconazole-exposed Candida albicans growth modulators – fluorescence, retest, confirmation (AID 2467); format: functional, cell-based
[5] = NIH-3T3 fibroblast cytotoxicity, dose response, cytotoxicity control, cell-based, fluorescence, Alamar Blue, secondary assay (AID 2327); format: functional;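 also: NIH-3T3 mouse fibroblasts cultured with fluconazole at 8 µg/mL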
Cytochrome P450 1A2 = target: T3, Cytochrome P450 1A2 (Homo sapiens, UniProt P05177);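 also: PubChem cytochrome P450 panel assay, CYP1A2 panel member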
T3 sequence (P05177 whole entry): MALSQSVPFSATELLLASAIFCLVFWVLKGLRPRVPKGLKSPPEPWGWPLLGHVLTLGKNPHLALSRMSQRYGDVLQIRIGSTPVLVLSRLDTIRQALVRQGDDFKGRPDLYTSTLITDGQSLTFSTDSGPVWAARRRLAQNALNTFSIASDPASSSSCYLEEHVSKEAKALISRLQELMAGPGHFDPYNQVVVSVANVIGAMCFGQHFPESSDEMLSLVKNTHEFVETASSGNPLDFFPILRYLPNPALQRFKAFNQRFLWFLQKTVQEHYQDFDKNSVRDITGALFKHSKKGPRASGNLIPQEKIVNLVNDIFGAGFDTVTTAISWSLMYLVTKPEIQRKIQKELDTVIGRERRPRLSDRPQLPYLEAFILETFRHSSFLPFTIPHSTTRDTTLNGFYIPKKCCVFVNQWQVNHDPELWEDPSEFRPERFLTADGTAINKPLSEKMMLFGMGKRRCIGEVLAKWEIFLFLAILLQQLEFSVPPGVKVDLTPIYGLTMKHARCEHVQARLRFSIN

[6] = target: Luciferin 4-monooxygenase (Photinus pyralis, UniProt P08659); test: inhibition of purified Photinus pyralis luciferase – biochemical, luminescence, dose response (AID 1891)
Luciferin 4-monooxygenase, sequence (P08659 whole entry): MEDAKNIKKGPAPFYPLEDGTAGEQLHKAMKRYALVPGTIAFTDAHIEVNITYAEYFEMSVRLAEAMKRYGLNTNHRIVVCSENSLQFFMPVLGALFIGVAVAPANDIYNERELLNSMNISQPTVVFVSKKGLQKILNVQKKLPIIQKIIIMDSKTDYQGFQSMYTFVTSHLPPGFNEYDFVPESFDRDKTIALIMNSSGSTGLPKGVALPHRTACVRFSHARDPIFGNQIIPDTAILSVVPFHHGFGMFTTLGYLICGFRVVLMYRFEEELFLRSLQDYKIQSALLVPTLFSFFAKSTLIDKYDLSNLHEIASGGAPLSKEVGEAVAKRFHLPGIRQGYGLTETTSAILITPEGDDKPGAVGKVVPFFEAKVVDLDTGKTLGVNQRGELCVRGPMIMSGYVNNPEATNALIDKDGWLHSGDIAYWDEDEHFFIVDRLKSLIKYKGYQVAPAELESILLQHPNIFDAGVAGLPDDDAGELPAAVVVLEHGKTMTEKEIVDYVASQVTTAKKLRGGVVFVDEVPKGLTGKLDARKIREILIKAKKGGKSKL

[7] = Luminescence Cell-Based Dose Confirmation HTS to Identify Inhibitors of Platelet Dense Granule Release. [Related pubchem assays: 1663 (Primary HTS), 1678 (Summary of Project)]; format: functional
Cytochrome P450 2C19 = Cytochrome P450 2C19 (Homo sapiens, UniProt P33261); test: Cytochrome panel assay with activity outcomes. Panel member name: p450-cyp2c19 Compounds with AC50 equal or less than 10 uM are considered active; format: functional; settings: read-out: AC50
Cytochrome P450 2C19, sequence (P33261 whole entry): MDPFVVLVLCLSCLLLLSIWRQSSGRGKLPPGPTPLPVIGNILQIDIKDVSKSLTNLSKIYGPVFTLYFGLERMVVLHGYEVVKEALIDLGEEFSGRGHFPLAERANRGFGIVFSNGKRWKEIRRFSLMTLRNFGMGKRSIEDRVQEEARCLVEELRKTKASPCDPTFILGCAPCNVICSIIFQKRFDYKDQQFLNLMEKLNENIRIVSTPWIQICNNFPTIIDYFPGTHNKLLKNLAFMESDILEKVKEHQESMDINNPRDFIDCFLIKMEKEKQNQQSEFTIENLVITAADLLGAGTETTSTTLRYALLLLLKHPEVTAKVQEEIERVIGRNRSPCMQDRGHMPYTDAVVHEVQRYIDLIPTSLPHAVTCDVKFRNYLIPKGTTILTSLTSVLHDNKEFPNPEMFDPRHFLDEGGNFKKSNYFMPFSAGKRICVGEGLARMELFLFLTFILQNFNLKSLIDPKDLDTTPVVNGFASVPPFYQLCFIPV

[8] = target: T2, Short transient receptor potential channel 4; test: block of DAMGO-driven TRPC4 calcium entry – cell-based, HEK293 TRPC4/mu-opioid, Fluo-4 calcium, dose response (AID 434942); format: functional;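 also: potency of inhibitors blocking the TRPC4 calcium response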
Cytochrome P450 2C9 = Cytochrome P450 2C9 (Homo sapiens, UniProt P11712)
Cytochrome P450 2C9, sequence (P11712 whole entry): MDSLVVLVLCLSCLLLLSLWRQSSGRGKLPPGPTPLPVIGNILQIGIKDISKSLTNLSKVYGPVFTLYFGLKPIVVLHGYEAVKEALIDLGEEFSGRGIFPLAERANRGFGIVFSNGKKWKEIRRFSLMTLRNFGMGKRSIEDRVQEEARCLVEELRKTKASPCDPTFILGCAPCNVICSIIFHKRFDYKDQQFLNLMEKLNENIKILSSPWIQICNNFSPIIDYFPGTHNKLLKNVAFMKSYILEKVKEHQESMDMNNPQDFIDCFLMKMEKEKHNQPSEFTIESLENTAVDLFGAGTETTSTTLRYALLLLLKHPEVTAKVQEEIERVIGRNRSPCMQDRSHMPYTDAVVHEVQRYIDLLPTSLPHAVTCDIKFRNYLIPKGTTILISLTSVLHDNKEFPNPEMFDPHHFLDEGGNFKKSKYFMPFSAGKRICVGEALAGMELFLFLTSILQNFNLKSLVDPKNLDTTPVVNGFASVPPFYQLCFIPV

[9] = target: T4, Heat shock factor protein 1 (Mus musculus, UniProt P38532); test: enhancement of HSF1-driven luciferase signal – cell-based, NIH3T3, luminescence, dose retest, confirmation (AID 435004); format: functional;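 also: stress induced by proteasome inhibitor MG132 added 30 min after compound; luciferase reporter driven by HSF1 response element in NIH3T3 cells; actives raise luminescence as potentiators of the MG132 stress response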
T4 sequence (P38532 whole entry): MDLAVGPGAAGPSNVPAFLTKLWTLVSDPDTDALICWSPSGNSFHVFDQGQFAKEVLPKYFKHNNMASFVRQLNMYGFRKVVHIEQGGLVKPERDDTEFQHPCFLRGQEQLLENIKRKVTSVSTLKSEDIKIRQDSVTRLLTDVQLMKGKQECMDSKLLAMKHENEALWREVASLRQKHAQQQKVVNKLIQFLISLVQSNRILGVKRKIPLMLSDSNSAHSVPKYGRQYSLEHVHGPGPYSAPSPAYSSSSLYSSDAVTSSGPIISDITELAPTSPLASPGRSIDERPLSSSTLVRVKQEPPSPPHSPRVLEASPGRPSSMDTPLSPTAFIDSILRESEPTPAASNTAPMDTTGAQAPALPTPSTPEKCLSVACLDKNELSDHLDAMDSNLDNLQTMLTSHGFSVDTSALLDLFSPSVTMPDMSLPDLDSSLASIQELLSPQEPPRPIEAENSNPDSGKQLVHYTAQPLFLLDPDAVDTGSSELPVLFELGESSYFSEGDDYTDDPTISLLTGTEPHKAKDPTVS

[10] = target: T5, Corticotropin-releasing factor receptor 2/Corticotropin-releasing factor-binding protein (Homo sapiens, UniProt P24387+Q13324); test: activators of CRF receptor 2 with binding protein – uHTS hits, confirmation (AID 602473); format: functional; settings: read-out: EC50_Mean
T5 sequence (Q13324 whole entry): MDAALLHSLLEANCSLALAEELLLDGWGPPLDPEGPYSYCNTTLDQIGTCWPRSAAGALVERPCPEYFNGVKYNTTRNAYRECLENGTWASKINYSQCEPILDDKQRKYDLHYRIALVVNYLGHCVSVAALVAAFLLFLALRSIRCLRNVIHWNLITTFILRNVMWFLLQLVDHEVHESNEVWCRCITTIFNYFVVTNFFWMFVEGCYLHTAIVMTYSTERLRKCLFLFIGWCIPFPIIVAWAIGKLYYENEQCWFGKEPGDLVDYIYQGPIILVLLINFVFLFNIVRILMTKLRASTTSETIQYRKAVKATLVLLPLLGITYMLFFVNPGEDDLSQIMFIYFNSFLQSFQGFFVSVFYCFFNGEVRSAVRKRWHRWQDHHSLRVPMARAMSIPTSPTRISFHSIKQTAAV
T5 sequence (P24387 whole entry): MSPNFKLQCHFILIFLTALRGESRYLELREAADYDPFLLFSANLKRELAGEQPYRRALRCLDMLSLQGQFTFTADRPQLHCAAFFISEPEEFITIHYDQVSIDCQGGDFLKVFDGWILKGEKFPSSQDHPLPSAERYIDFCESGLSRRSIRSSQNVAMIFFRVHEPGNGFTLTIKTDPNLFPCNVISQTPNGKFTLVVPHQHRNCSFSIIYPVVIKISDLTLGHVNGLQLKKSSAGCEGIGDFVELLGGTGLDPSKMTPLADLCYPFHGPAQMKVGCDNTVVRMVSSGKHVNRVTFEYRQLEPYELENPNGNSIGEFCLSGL

[11] = HIV-1 AD8 envelope cell-cell fusion blockers – cherry-pick, dose response (AID 652062); format: functional, cell-based;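 also: luciferase signal from cell-cell fusion driven by HIV-1 clade B AD8 Env; potency is for inhibitors of fusion seen as a drop in luminescence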
Paired box protein Pax-8 = Paired box protein Pax-8 (Homo sapiens, UniProt Q06710); test: PAX8 transcriptional activity inhibition in RMG-I – RMG-I cells, luciferase, cherry-pick, dose response (AID 687027); format: functional, cell-based;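 also: luciferase reporter driven by Pax8 target thyroperoxidase promoter measured by SteadyGlo luminescence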
Paired box protein Pax-8, sequence (Q06710 whole entry): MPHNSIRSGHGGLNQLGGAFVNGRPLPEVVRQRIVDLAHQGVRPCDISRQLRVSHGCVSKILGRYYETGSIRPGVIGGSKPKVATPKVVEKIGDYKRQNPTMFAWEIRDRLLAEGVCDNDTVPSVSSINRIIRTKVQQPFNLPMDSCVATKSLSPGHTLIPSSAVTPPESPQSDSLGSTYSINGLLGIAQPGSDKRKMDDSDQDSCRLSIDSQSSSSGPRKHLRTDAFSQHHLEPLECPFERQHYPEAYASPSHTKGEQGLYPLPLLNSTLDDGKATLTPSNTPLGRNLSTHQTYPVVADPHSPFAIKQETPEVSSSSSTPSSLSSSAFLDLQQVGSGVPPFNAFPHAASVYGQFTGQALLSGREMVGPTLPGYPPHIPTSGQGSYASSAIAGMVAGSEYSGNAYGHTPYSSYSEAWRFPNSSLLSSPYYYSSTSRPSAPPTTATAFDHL

[12] = tested on: Streptococcus sp. 'group A'; test: Streptococcus pyogenes SK(-)GAS viability under kanamycin – luminescence, BacTiterGlo, confirmation, counter-screen for streptokinase expression inhibitor project, dose response (AID 1900); format: functional, organism-based
Streptococcus = test: GAS UMAA2166 growth inhibition – luminescence, BacTiterGlo, counter-screen for streptokinase expression inhibitor project, dose response (AID 1915); format: functional, organism-based;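 also: potency for reduction of bacterial viability or growth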
[13] = target: Heat shock protein HSP 90-alpha (Homo sapiens, UniProt P07900); format: functional, organism-based

COc1ccc(N(C)C(=O)Nc2ccc3nsnc3c2)cc1
IC50 [1]: > 50 µM (not active)

CCOc1ccc(CN2CCNC(=O)C2CC(=O)NCCc2ccccn2)cc1 (stereo not given)
EC50 [2]: 6.68 µM (active)

O=C1C(Cl)=C(N2CCN(c3ncccn3)CC2)C(=O)N1c1ccc(C(F)(F)F)cc1
IC50 [3]: > 50 µM (inconclusive)

O=C1C(Cl)=C(N2CCN(c3ccccc3)CC2)C(=O)N1c1cccc(C(F)(F)F)c1
IC50 [3]: > 50 µM (inconclusive)

CSc1ncc(Cl)c(C(=O)C(C#N)c2nc(O)c3cc(C)cc(C)c3n2)n1 (stereo not given)
EC50 [4]: 2.48 µM (active)
EC50 [5]: 18.3 µM (active)

Cc1cc(OCCn2ccnc2)cc(C)c1Cl
EC50 [2]: 3.76 µM (active)

CCC(C)C1=CC(=Nc2c(C)n(C)n(-c3ccccc3)c2=O)C=C(C(C)CC)C1=O (stereo not given)
IC50 [1]: > 50 µM (not active)

Cc1cc(C=C2C(=O)N(C)C(=S)N(C)C2=O)c(C)n1-c1cccnc1
IC50 [1]: > 50 µM (not active)

Cc1cccc(N2C(=O)C(Cl)=C(N3CCN(c4ccccc4)CC3)C2=O)c1
IC50 [3]: > 50 µM (inconclusive)

O=C(NCCCN1CCN(c2cccc(Cl)c2)CC1)C1CCC(=O)N1Cc1ccccc1Cl (stereo not given)
AC50 (Cytochrome P450 1A2): 0.00631 µM (inconclusive)
EC50 [6]: > 112 µM (not active)
EC50 [7]: > 112 µM (not active)
AC50 (Cytochrome P450 2C19): 10 µM (inconclusive)
EC50 [8]: 2.99 µM (active)
AC50 (Cytochrome P450 2C9): 15.8 µM (inconclusive)

Cc1cc(C)c(C)c(OCCCN(C)C)c1
EC50 [2]: 0.168 µM (active)

COc1ccc(OC)c(NC(=O)c2c3c(nc4ccccc24)CCC3)c1
EC50 [4]: 2.17 µM (active)
EC50 [5]: > 150 µM (inactive)

Oc1cc(-c2ccccc2)c2ccccc2c1
IC50 [1]: 14.4 µM (active)
EC50 [9]: 40.1 µM (active)

NS(=O)(=O)c1ccc(/N=C/C2=C(O)c3ccccc3C2=O)cc1
IC50 [3]: > 100 µM (not active)

CC1CC(C)(C)N(C(=O)CN2C(=O)c3ccccc3C2=O)c2ccccc21 (stereo not given)
EC50 [10]: 6.44 µM (active)
EC50 [2]: 5.96 µM (active)
EC50 [8]: 4.22 µM (active)

CC(C)(C)[C@H]1C=C(C(=O)NCc2ccccc2)O[C@@H](OCc2ccc(CO)cc2)C1
EC50 [2]: 9.44 µM (active)

c1ccc(Cn2nnnc2C(c2cccnc2)N2CCN(C3CCCCC3)CC2)cc1 (stereo not given)
EC50 [2]: 1.68 µM (active)

CC1(C)CC(=O)c2cc(C(=O)NCc3ccco3)c(=O)n(-c3ccc(Cl)cc3)c2C1
EC50 [2]: 6.68 µM (active)

Cc1ccc(S(=O)(=O)Nc2cccc(C(=O)NCC(c3ccccc3)N(C)C)c2)cc1F (stereo not given)
EC50 [2]: 5.31 µM (active)
EC50 [8]: 0.267 µM (active)

CC1CCCN(C(=O)c2ccc(S(=O)(=O)N3CCC(c4nc5ccccc5s4)CC3)cc2)C1 (stereo not given)
AC50 [11]: 5.85 µM (active)

COc1ccc(S(=O)(=O)N(C)C[C@H]2Oc3ccc(NC(=O)Nc4ccc(C(F)(F)F)cc4)cc3CC(=O)N([C@H](C)CO)C[C@@H]2C)cc1
AC50 (Paired box protein Pax-8): 11.9 µM (active)

COc1ccc(NC(=O)Nc2ccc3c(c2)CC(=O)N([C@@H](C)CO)C[C@@H](C)[C@@H](CN(C)Cc2ccc(Oc4ccccc4)cc2)O3)cc1
AC50 (Paired box protein Pax-8): 25.3 µM (active)

C[C@@H]1CCCCO[C@@H](CN(C)C(=O)Nc2ccccc2)[C@H](C)CN([C@H](C)CO)C(=O)c2cc(NC(=O)Nc3ccc(C(F)(F)F)cc3)ccc2O1
AC50 (Paired box protein Pax-8): 3.07 µM (active)

O=C(O)c1ccc(N/N=C/c2ccc(-c3cccc(Cl)c3)o2)cc1
EC50 [12]: 3.86 µM (active)
EC50 (Streptococcus): 10.7 µM (active)
AC50 [13]: 8 µM (active)
EC50 [8]: 4.73 µM (active)

O=C(NCCO)c1cc(-c2cc(F)c(F)cc2F)n[nH]1
IC50 [3]: > 10 µM (inconclusive)

COc1ccc(F)cc1S(=O)(=O)Nc1cccnc1
IC50 [3]: > 100 µM (not active)
